This is an account of results in US12465630B2, “Small peptide compositions and uses thereof” (University of Pittsburgh—Of the Commonwealth System of …, priority 2018, dated 2025).

Entries after “also recorded” stand apart in the source; their conditions may differ.

The test system of assay [1] is cardiomyocytes. The assay is described as follows: Motility (scratch) assay, cardiomyocytes. The settings on record: TGFβ1 10 ng/mL + agent 10 μM, 24 h, FIG. 1A. It counts as cell-based, mouse. On the procedure:
(§1) Primary cardiac fibroblasts and cardiomyocytes were isolated from both wild-type and CXCR3−/− neonatal mouse pups. After washing in PBS, hearts were stirred for 5 minutes in 0.5% trypsin at 37° C. to dissociate cells into solution. The suspended cells were then transferred to DMEM containing 20% fetal bovine serum (FBS) on ice to inactivate trypsin activity, and dissociation was repeated twice more with fresh trypsin solution. Cells were then washed and plated into 6-well plates at 1.25×10^6 cells/well, suspended in cardiac cell media (DMEM containing 7.5% dialyzed FBS and 1% antibiotic/antimitotic solution). After three hours, adhered fibroblasts were separated from the unattached cardiomyocytes through resuspension of the cells, and cardiomyocytes were plated separately at a density of 5×10^5 cells/ml.
(§2) To determine the effect of IP-10p on TGFβ1-induced cell migration, motility assays were performed on cardiac fibroblasts, cardiomyocytes, and co-cultures (2:1 ratio of cardiomyocytes to fibroblasts). Cells were plated at 2.5×10^5 cells/well in a 12-well uncoated plate in depleted media (DMEM containing 0.5% FBS) 24 hours before beginning the experiment. A pipette tip was used to create a scratch in the monolayer and the plate was washed twice with PBS to remove scraped cells. Cells were then treated with TGFβ1 (R&D Systems, Minneapolis, MN) alone (10 ng/mL) to stimulate fibrosis, CXCL10 alone (10 μM), IP-10p alone (10 μM), TGFβ1+CXCL10, TGFβ1+IP-10p, or left untreated. Images were taken immediately after scratching and 24 hours later, and Adobe Photoshop was used to quantify wound motility as distance between wound edges relative to the initial scratch width.

The subject of assay [2] is cardiac fibroblasts. In words: Motility (scratch) assay, cardiac fibroblasts. Format: cell-based, mouse. The protocol:
as §1, §2

Assay [3] addresses T1, CXCR3 (Homo sapiens, UniProt P49682).
T1 sequence (P49682 1-415 isoform P49682-2): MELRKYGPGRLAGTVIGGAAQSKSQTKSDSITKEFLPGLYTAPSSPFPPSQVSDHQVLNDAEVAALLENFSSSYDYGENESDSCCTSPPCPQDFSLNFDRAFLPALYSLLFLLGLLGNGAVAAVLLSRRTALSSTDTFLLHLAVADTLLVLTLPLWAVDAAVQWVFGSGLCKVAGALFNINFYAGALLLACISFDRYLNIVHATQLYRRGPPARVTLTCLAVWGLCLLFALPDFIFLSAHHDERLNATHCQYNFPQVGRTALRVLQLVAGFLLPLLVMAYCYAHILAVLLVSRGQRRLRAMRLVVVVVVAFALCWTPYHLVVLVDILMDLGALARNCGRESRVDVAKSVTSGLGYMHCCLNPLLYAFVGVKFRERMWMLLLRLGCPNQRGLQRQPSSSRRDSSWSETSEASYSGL
Particulars: cited from earlier work.

In assay [4] the test system is co-cultures of cardiomyocytes and cardiac fibroblasts. In words: Motility (scratch) assay, co-cultures. Format: cell-based, mouse. The settings on record: co-culture 2:1 cardiomyocytes to fibroblasts; FIG. 1C; listed as IP-10 Peptide. On the procedure: as §1
To determine the effect of IP-10p on TGFβ1-induced cell migration, motility assays were performed on cardiac fibroblasts, cardiomyocytes, and co-cultures (2:1 ratio of cardiomyocytes to fibroblasts). Cells were plated at 2.5×10^5 cells/well in a 12-well uncoated plate in depleted media (DMEM containing 0.5% FBS) 24 hours before beginning the experiment. […] Images were taken immediately after scratching and 24 hours later, and Adobe Photoshop was used to quantify wound motility as distance between wound edges relative to the initial scratch width.

Assay [5] concerns CXCR3−/− co-cultures of cardiac fibroblasts and cardiomyocytes. In words: Myofibroblast differentiation and ECM in CXCR3−/− co-cultures. Format: cell-based, mouse. The settings on record: CXCR3−/− cells, TGFβ1. On the procedure:
as §1
(§3) Fibroblast activation to myofibroblasts is marked by αSMA expression within the cytoskeleton and serves as a marker to induce fibrosis. Cardiac fibroblasts were plated at 2,000 cells/well in an 8-well chamber slide and allowed to adhere overnight. After 24 hours, cells were washed and treated with: TGFβ1 alone (10 ng/ml), CXCL10 alone (10 μM), IP-10p alone (10 μM), TGFβ1+CXCL10, TGFβ1+IP-10p, or left untreated. After 24 hours, cells were fixed in ice cold methanol for 10 minutes and stained for αSMA (1:200, Abcam ab5694, Cambridge, UK) at 4° C. overnight, followed by a goat-anti-rabbit Alexa Fluor 594-conjugated secondary antibody (Abcam ab150080). After counterstaining with DAPI, cells were imaged, and fibroblast activation was measured using corrected total cell fluorescence (CTCF). These measurements were also performed in co-cultures of cardiomyocytes and cardiac fibroblasts (2:1 ratio)
Cardiac fibrosis is marked by overproduction of ECM proteins following injury. […] Expression of these molecules is expressed at CTCF and was quantified using MetaMorph® (Molecular Devices, Sunnyvale, CA).
In addition to cell motility, myofibroblast differentiation in CXCR3−/− cells in response to IP-10p was assessed. […]

In assay [6] the test system is co-cultures of cardiomyocytes and cardiac fibroblasts. The assay is described as follows: Fibrotic extracellular matrix (ECM) secretion, co-cultures. It counts as cell-based, mouse. The settings on record: 48 h; for collagen secretion, agent alone / fibronectin secretion, agent alone: agent alone vs unstimulated cultures. On the procedure:
as §1
Cardiac fibrosis is marked by overproduction of ECM proteins following injury. To observe the effect of IP-10p on secretion of these molecules, co-cultures of cardiomyocytes and cardiac fibroblasts were used to account for […] signaling taking place between the two dominant cell types in the heart. Fibroblasts and myocytes were plated at a 2:1 ratio using the same culture conditions and treatment groups described above for fibroblast activation. Following a 48-hour incubation with their respective treatments, cells were fixed, permeabilized and stained. Antibodies for collagen α1 type 1 (1:250, Santa Cruz Biotechnology SC8784, Dallas, TX), fibronectin (1:250, Abcam ab2413), and tenascin C (1:200, Abcam ab6346), followed by their appropriate secondary antibodies (Abcam ab150132, ab150077, and 150153, respectively), were used to determine fibrotic ECM secretion from the co-cultures. Expression of these molecules is expressed at CTCF and was quantified using MetaMorph® (Molecular Devices, Sunnyvale, CA).

In assay [7] the test system is cardiac fibroblasts. The assay is described as follows: Fibroblast activation assay (αSMA), cardiac fibroblasts. Format: cell-based, mouse. The protocol:
as §1, §3

Assay [8] has as its system primary lung fibroblasts. The assay is described as follows: Scratch assay, TGF-β-induced fibroblast migration. It counts as cell-based, human. The settings on record: TGF-β 10 ng/mL, 24 hours. On the procedure:
Next, studies were performed to evaluate the effect of IP-10 related peptides on migration of lung fibroblasts in response to TGF-β. Primary lung fibroblasts from healthy patients were plated in 24-well plates in complete medium and incubated overnight. The next day, the medium was changed to quiescent medium and cells were incubated in this medium for 24 hours. The following day, a plus-shaped scratch was made across the cells using a 1000 μL pipette tip. An image was taken at a location that could be identified later. After imaging, cells were either left untreated, treated with 100 ng/mL peptide alone, treated with 10 ng/mL TGF-β, or treated with peptide and TGF-β and incubated for 24 hours. At the end of the incubation time, the cells were imaged in the same location as in the original image to visualize closure of the scratch. The denuded area was calculated using ImageJ software and the percent wound closure was calculated for each treatment group.

In assay [9] the test system is primary lung fibroblasts. In words: qPCR of pro-fibrotic mRNAs in primary lung fibroblasts. The settings on record: TGF-β 10 ng/mL, 24 h. It counts as cell-based, human. On the procedure:
The next day, the medium was changed to quiescent medium and the cells were incubated in this medium for 24 hours. The following day, cells were either left untreated, treated with 10 ng/mL or 100 ng/mL of IP-10-1 (SEQ ID NO: 2), IP-10-2 (SEQ ID NO: 3) or IP-10-3 (SEQ ID NO: 4) peptide, treated with 10 ng/mL TGF-β, or treated with peptide and TGF-β for 24 hours. Total RNA was extracted using the Qiagen miRNeasy kit (Qiagen) and treated with DNase1, according to the manufacturer's instructions. RNA was then quantified and converted to cDNA using the Clontech RNA to cDNA EcoDry Double Primed Premix (Takara). qPCR was performed using PowerUp Sybr Green (Invitrogen) on an Applied Biosystems Quant Studio 3 instrument. Primers were from IDT and were designed using IDT Primer Quest and NCBI Primer Blast tools. The delta-delta Ct method was used to determine relative expression. GAPDH was used as a housekeeping gene.
A general note: In qPCR the cycle at which signal appears reflects the starting amount.

Regarding “PESKAIKNLLKAVSKEMSKRSP [IP-10p, 22-amino acid CXCL10 peptide spanning the C-terminal residues (77-98) of IP-10, the alpha-helical region]”, the “cardiomyocyte motility in the presence of TGFβ1” value in assay [1] is given as “completely inhibited”. In [1] (listed as IP-10 Peptide), the “cardiomyocyte motility in the presence of TGFβ1” value was “inhibit migration”. Also, in assay [2] (10 μM alone, 24 h, compared to control), the “motility of cardiac fibroblasts, agent alone” value is recorded as “not altered”. Further, the “migration following TGF-β induction in cardiac fibroblasts” value in assay [2] (FIG. 1B) was “inhibit migration”. The “reduction of motility of TGFβ1-treated fibroblasts” value in assay [2] (TGFβ1 10 ng/mL + agent 10 μM, 24 h) is “over 40%”. Besides, in assay [3] (PCT Publication Nos. WO 2013/032853 and WO 2015/112505), the “activation of the CXCR3B isoform” value is recorded as “activates the CXCR3B isoform”. Also, the “competition for binding and activation of CXCR3” value in assay [3] (compared with whole CXCL10) is “competes for binding and activation of CXCR3 in an equimolar manner to whole CXCL10”. For the same substance, in assay [4], the “cellular migration in TGF-β induced co-cultures” value was “inhibits cellular migration”. Also, in assay [5], the “expression of αSMA in CXCR3−/− co-cultures” value was “inhibiting expression”, the “upregulation of collagen I in CXCR3−/− co-cultures” value is “inhibited upregulation” and the “upregulation of fibronectin in CXCR3−/− co-cultures” value was “inhibited upregulation”. Further, in assay [6] (TGFβ1 10 ng/mL + agent 10 μM), the “collagen expression in the presence of TGFβ1” value is “reduced expression of both these proteins to baseline levels” and the “fibronectin expression in the presence of TGFβ1” value is recorded as “reduced expression of both these proteins to baseline levels”. Moreover, in assay [6], the “collagen secretion, agent alone” value was “reduced collagen and fibronectin secretion”; the “fibronectin secretion, agent alone” value was “reduced collagen and fibronectin secretion”. Further, the “reduction of activation of fibroblasts (αSMA) compared to the untreated control” value in assay [7] (IP-10p alone 10 μM, 24 h) came out at 33%. In addition, the “αSMA expression in the presence of TGFβ1” value in assay [7] (TGFβ1 10 ng/mL + IP-10p 10 μM vs TGFβ1 alone) was “reduced αSMA expression”.
With “transforming growth factor beta 1 [TGFβ1]”, in assay [2] (TGFβ1 10 ng/mL alone, 24 h), the “increase of cardiac fibroblast motility relative to untreated cells” value is on record as “over 3 fold”. Moreover, in [8], the “fibroblast migration (wound closure), TGF-β alone” value is “significantly increased fibroblast migration; also recorded: significantly increased rate of wound closure”. Moreover, in assay [9], the “expression of pro-fibrotic mRNAs, TGF-β alone” value is “induced expression; also recorded: caused an induction”. For the same substance, in assay [6], the “collagen secretion, agent alone” value was “significant upregulation” and the “fibronectin secretion, agent alone” value is listed as “significant upregulation”. Moreover, the “αSMA expression, TGFβ1 alone” value in [7] (TGFβ1 10 ng/mL vs untreated control) is “drastically increased αSMA expression”.
